The text below walks through data of US7723384B2, “Keto lactam compounds and use thereof” (Abbott GmbH & Co. KG., priority 2003, dated 2010).

pKi: −log10 of the molar value. Where a name gives a salt, the structure may show the parent alone.

Test [1] concerns the target T1, human dopamine D3 receptors (Homo sapiens, UniProt P35462).
T1 construct: expressed in transfected cells; membranes)
Description: Dopamine D3 receptor binding, displacement of [125I]-iodosulpride. To be noted: membranes from HEK-293 cells with stably expressed human D3 receptors, 0.1 nM [125I]-iodosulpride. The protocol: (§1) The substance to be tested was dissolved either in methanol/Chremophor® (BASF-AG) or in dimethyl sulfoxide and then diluted with water to the desired concentration.
(§2) Triplicate mixtures were carried out.
The incubation buffer comprised 50 mM Tris, 120 mM NaCl, 5 mM KCl, 2 mM CaCl2, 2 mM MgCl2 and 0.1% bovine serum albumin, 10 μM quinolone, 0.1% ascorbic acid (prepared fresh each day). The buffer was adjusted to pH 7.4 with HCl.
(§3) III. Measurement and Evaluation:
(§4) After incubation at 25° C. for 60 minutes, the mixtures were filtered under vacuum through Whatman GF/B glass fiber filters using a cell harvester. The filters were transferred by a filter transfer system into scintillation vials. After addition of 4 ml of Ultima Gold® (Packard), the samples were shaken for one hour and then the radioactivity was counted in a beta counter (Packard, Tricarb 2000 or 2200CA). The cp values were converted into dpm by means of a standard quench series with the aid of the instrument's own program.
(§5) Evaluation of the inhibition plots took place by iterative nonlinear regression analysis using the Statistical Analysis System (SAS) similar to the “LIGAND” program described by Munson and Rodbard.

For test [2], the target named is T2, human dopamine D2L receptors (long isoform) (Homo sapiens, UniProt P14416).
T2 construct: expressed in transfected cells; membranes)
Description: Dopamine D2L receptor binding, displacement of [125I]-iodospiperone. To be noted: ratio Ki(D2L)/Ki(D3); HEK-293 membranes with human D2L and D3 receptors. As for the experimental part:
as §1
II. Dopamine D2L Receptor:
as §2
The incubation buffer comprised 50 mM Tris, 120 mM NaCl, 5 mM KCl, 2 mM CaCl2, 2 mM MgCl2 and 0.1% bovine serum albumin. The buffer was adjusted to pH 7.4 with HCl.
as §3, §4, §5

T1 sequence (P35462 whole entry): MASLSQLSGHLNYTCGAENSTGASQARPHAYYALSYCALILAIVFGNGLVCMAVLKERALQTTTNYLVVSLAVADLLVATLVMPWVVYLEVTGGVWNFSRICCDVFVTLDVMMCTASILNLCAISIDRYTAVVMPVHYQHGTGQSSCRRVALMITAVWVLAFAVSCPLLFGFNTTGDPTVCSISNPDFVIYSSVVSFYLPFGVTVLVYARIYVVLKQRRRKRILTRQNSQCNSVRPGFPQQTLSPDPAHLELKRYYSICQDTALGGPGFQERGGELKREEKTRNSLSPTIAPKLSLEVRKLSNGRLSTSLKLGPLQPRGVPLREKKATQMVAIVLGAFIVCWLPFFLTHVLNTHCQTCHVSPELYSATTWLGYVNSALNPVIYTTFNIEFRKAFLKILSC
T2 sequence (P14416 whole entry, canonical isoform): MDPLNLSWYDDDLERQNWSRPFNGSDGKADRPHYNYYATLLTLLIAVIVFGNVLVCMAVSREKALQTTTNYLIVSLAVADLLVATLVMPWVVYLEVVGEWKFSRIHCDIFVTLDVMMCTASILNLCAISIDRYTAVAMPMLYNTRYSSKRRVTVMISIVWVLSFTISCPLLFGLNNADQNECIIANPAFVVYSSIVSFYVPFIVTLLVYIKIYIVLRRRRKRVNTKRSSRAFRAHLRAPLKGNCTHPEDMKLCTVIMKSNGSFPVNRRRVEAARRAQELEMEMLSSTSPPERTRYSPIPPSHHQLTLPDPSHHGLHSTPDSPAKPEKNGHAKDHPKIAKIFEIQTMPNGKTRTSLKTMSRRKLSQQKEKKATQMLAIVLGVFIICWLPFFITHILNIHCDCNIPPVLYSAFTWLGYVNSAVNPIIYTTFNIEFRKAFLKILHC

A word on the pKi: it is −log10 of the Ki, conventionally taken in molar units. The low end stands for a large Ki, the high end for a small Ki. Consider `O=C(O)/C=C/C(=O)O.O=C1CCC(=O)N(CCCCN2CCN(c3cc(C(F)(F)F)cc(C(F)(F)F)c3)CC2)c2ccccc21` [Example 87, 1-{4-[4-(3,5-Bis(trifluoromethyl)phenyl)piperazin-1-yl]butyl}-3,4-dihydro-1H-benzo[b]azepine-2,5-dione fumarate], for which the pKi in test [1] was 8.13. Besides, the “Selectivity vs. D2L (Ki(D2L)/Ki(D3))” value in test [2] amounted to 129.
As for `CC(C)(C)c1nc(C2CC2)cc(N2CCN(CCCCN3C(=O)CCC(=O)c4ccccc43)CC2)n1` [Example 16, 1-{4-[4-(2-tert-Butyl-6-cyclopropylpyrimidin-4-yl)piperazin-1-yl]butyl}-3,4-dihydro-1H-benzo[b]azepine-2,5-dione], the pKi in test [1] was 9.02. The “Selectivity vs. D2L (Ki(D2L)/Ki(D3))” value in test [2] was 62.
`CC(C)(C)c1cc(N2CCN(CCCCN3C(=O)CCC(=O)c4ccccc43)CC2)nc(C(C)(C)C)n1.Cl` [Example 10, 1-{4-[4-(2,6-Di-tert-butylpyrimidin-4-yl)piperazin-1-yl]butyl}-3,4-dihydro-1H-1-benzazepine-2,5-dione hydrochloride] had a pKi in test [1] of 8.91. The “Selectivity vs. D2L (Ki(D2L)/Ki(D3))” value in test [2] worked out at 74.
Regarding `COc1cc2c(cc1OC)N(CCCCN1CCN(c3cc(C(F)(F)F)nc(C(C)(C)C)n3)CC1)C(=O)CCC2=O` [Example 6, 1-(4-{4-[2-tert-Butyl-6-(trifluoromethyl)pyrimidin-4-yl]piperazin-1-yl}butyl)-7,8-dimethoxy-3,4-dihydro-1H-1-benzazepine-2,5-dione], the pKi in test [1] is 8.35. Moreover, the “Selectivity vs. D2L (Ki(D2L)/Ki(D3))” value in test [2] stood at 104.
Take `CCCc1cc(N2CCN(CCCCN3C(=O)CCC(=O)c4ccccc43)CC2)nc(C(C)(C)C)n1.Cl` [Example 7, 1-{4-[4-(2-tert-Butyl-6-propylpyrimidin-4-yl)piperazin-1-yl]butyl}-3,4-dihydro-1H-1-benzazepine-2,5-dione hydrochloride]: the pKi in test [1] is 8.88. In addition, the “Selectivity vs. D2L (Ki(D2L)/Ki(D3))” value in test [2] is listed as 118.
Regarding `CC(C)(C)c1nc(N2CCN(C/C=C/CN3C(=O)CCC(=O)c4ccccc43)CC2)cc(C(F)(F)F)n1` [Example 4, 1-((2E)-4-{4-[2-tert-Butyl-6-(trifluoromethyl)pyrimidin-4-yl]piperazin-1-yl}but-2-enyl)-3,4-dihydro-1H-1-benzazepine-2,5-dione], the pKi in test [1] is 8.76. For the same compound, the “Selectivity vs. D2L (Ki(D2L)/Ki(D3))” value in test [2] is reported as 155.
The like results for `O=C1CCC(=O)N(CCCCN2CCN(c3cc(Cl)cc(Cl)c3)CC2)c2ccccc21` [Example 86, 1-{4-[4-(3,5-Dichlorophenyl)-2,5-piperazin-1-yl]butyl}-3,4-dihydro-1H-benzo[b]azepine-2,5-dione fumarate] were, in that order, 8.70 and 56.
